A short description of data set [1]: Stability of the compound in phosphate buffer at pH 7.4 at 100 uM by HPLC analysis. It counts as physicochemical. To be noted: pH 7.4, 100 µM.
Another data set addresses Kallikrein-1 (Homo sapiens, UniProt P06870). Briefly: Inhibition of human kallikrein using H-Pro-Phe-Arg-AMC acetate salt as substrate measured for 30 mins by spectrophotometry.
Another data set addresses Prothrombin (Homo sapiens, UniProt P00734). Briefly: Inhibition of human thrombin using Z-Gly-Gly-Arg-AMC.HCl as substrate measured for 30 mins by spectrophotometry.
The target in data set [2] is Urokinase-type plasminogen activator (Homo sapiens, UniProt P00749). Briefly: Inhibition of human urokinase using Z-Gly-Gly-Arg-AMC.HCl as substrate measured for 30 mins by spectrophotometry.
The target in the next data set is T1, Cathepsin G (Homo sapiens, UniProt P08311).
T1 sequence (P08311 whole entry): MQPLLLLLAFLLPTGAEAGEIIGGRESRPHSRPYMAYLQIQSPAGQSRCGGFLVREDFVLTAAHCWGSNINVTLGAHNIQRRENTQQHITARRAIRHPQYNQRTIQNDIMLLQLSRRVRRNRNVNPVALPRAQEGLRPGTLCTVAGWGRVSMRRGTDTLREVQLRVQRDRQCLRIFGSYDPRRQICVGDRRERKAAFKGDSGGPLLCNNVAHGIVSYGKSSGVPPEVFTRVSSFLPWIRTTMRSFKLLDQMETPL
Briefly: Inhibition of human cathepsin G using Suc-Ala-Ala-Pro-Phe-p-nitroanilide as substrate incubated for 30 mins prior to substrate addition measured for 30 mins by spectrophotometry.

The next data set concerns the target T2, Neutrophil elastase (Homo sapiens, UniProt P08246).
T2 sequence (P08246 whole entry): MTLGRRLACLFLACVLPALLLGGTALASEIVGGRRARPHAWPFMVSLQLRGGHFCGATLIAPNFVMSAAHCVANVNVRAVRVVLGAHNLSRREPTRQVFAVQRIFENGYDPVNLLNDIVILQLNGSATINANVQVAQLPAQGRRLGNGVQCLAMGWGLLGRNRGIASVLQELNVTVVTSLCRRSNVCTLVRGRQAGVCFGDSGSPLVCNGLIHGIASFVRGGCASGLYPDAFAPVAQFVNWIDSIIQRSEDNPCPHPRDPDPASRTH
Briefly: Inhibition of human neutrophil elastase using MeO-Suc-Ala-Ala-Pro-Val-AMC as substrate incubated for 30 mins prior to substrate addition measured for 30 mins by fluorescence assay.

The nature of data set [3]: Half life in human plasma by HPLC analysis. Type of data set: ADME, cell-free.
In another data set the target is Pancreatic elastase (Sus scrofa, UniProt P08419+P00772). Briefly: Inhibition of pig pancreatic elastase using MeO-Suc-Ala-Ala-Pro-Val-AMC as substrate incubated for 30 mins prior to substrate addition measured for 30 mins by fluorescence assay. Type of data set: protein assay.
The nature of data set [4]: Half life in Sprague-Dawley rat liver microsomes by HPLC analysis. It counts as ADME. A general note: Liver microsomes are a subcellular fraction often used to study metabolism.
A further data set has as its system HEK-293T. Briefly: Cytotoxicity against human HEK293T cells after 24 hrs by MTT assay. It counts as cell-based. (Formazan colour is commonly taken as a measure of viable cells.)
For another data set, the target named is Trypsin (Homo sapiens, UniProt P07477+P07478+P35030). Briefly: Inhibition of human trypsin using Z-Gly-Gly-Arg-AMC.HCl as substrate measured for 30 mins by spectrophotometry. It counts as protein assay.
Another data set deals with NIH3T3. Briefly: cells. Particulars: Mus musculus, NIH3T3, 24 h.
A further data set concerns the target T3, Myeloblastin (Homo sapiens, UniProt P24158).
T3 sequence (P24158 whole entry): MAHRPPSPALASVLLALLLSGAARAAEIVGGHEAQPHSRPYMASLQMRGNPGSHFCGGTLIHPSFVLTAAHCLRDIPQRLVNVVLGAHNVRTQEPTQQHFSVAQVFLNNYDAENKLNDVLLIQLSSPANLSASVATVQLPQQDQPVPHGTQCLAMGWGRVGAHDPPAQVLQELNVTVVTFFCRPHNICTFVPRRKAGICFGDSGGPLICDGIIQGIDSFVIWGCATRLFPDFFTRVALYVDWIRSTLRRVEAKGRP
Briefly: Inhibition of human proteinase 3 using N-MeOSuc-Ala-Ala-Pro-Val-p-nitroanilide as substrate measured for 30 mins by spectrophotometry.

Data set [5] is described as follows: Inhibition of human chymotrypsin using Suc-Ala-Ala-Pro-Phe-7-amino-4-methylcoumarin as substrate measured for 30 mins by spectrophotometry.
The test system of a further data set is Plasma. Briefly: Metabolic stability in human plasma by HPLC analysis. It counts as ADME, cell-free.

The record followed here is ChEMBL document CHEMBL3091365, “Optimization of O3-acyl kojic acid derivatives as potent and selective human neutrophil elastase inhibitors” (J Med Chem, 2013).

Each structure is given as a SMILES string.

By IC50 is commonly meant the concentration that gives 50% inhibition. The half-life is the time needed for the level to fall by half in the phase considered.

Chain of Kallikrein-1 (P06870 whole entry): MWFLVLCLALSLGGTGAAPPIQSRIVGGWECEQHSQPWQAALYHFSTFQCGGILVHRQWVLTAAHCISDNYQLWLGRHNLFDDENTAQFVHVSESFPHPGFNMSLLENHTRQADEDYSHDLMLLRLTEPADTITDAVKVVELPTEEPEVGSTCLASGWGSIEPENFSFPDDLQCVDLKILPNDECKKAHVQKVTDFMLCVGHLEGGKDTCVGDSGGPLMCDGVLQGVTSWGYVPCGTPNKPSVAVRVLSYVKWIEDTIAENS
Description for NIH3T3: Cytotoxicity against mouse NIH/3T3 cells after 24 hrs by MTT assay

In the case of `O=C(Oc1coc(CSc2nnc(NC(=O)C3CC3)s2)cc1=O)c1cccc(F)c1`, the Stability result in [1] was “Stable”.

`CC(C)(C)C(=O)Oc1cn(-c2ccccc2)c(CSc2nc3cc(C(=O)O)ccc3o2)cc1=O`: the IC50 was more than 50 µM at Kallikrein-1, 8.4 µM on Prothrombin, more than 50 µM in [2] and 19 µM against Cathepsin G.

As to `O=C(Oc1cn(-c2ccccc2)c(CSc2nc3ccccc3s2)cc1=O)c1ccccc1`, at Neutrophil elastase, half-maximal inhibition (IC50) required 0.28 µM.

In turn, `CC(C)(C)C(=O)Oc1cn(-c2ccccc2)c(CSc2nc3ccccc3s2)cc1=O` registered an IC50 against Neutrophil elastase of 0.96 µM.

Consider `CC(C)(C)C(=O)Oc1coc(CSc2nc3cc(C(=O)O)ccc3o2)cc1=O`, for which the Stability result in data set [1] is on record as “Stable”. Besides, the IC50 on Kallikrein-1 is more than 50 µM; at Prothrombin it was more than 50 µM; in [2] it was more than 50 µM; on Cathepsin G, more than 100 µM.

In the case of `CC(C)(C)C(=O)Oc1coc(CSc2nc3ccccc3s2)cc1=O`, the half-life was 10.8 min in data set [3] and less than 1 min in data set [4]. Further, the IC50 is more than 100 µM against Pancreatic elastase; 0.11 µM at Neutrophil elastase; more than 100 µM in the data set on HEK-293T; more than 50 µM at Trypsin; more than 50 µM on Kallikrein-1; more than 50 µM against Prothrombin. In addition, the IC50 in the data set with NIH3T3 was more than 100 µM; at Myeloblastin, 5.9 µM; in [5], more than 50 µM; in data set [2], more than 50 µM; against Cathepsin G it was more than 100 µM. In addition, the Stability result in [1] was “Stable”.

As for `CC(C)(C)C(=O)Oc1ccc(S(=O)(=O)Nc2ccccc2C(=O)NCC(=O)O)cc1`, the Stability entry (with Plasma; in data set [1]) was “Stable” each time. The concentration for half-maximal inhibition (IC50) was more than 50 µM on Pancreatic elastase; more than 100 µM in the data set on HEK-293T; more than 2 µM on Trypsin; more than 2 µM at Kallikrein-1; more than 2 µM on Prothrombin; more than 100 µM in the data set on NIH3T3. Besides, the IC50 at Myeloblastin was more than 100 µM; in [5], more than 2 µM; in data set [2], more than 2 µM; on Cathepsin G, more than 100 µM. In data set [4], this compound showed a half-life of 19.9 min.
